In patent US10905691B2, “Use of triazolo(4,5-d)pyrimidine derivatives for prevention and treatment of bacterial infection” (Universite de Liege, priority 2016, dated 2021):
≈ marks a conversion by molar mass, not a printed value.

Experiments:
[1] = system: E. faecalis vancomycin-resistant (VRE) ATCC BAA-2365; experiment: MBC and MDK99.9 determination (CFU counting); type: cell-based, Enterococcus faecalis; conditions: for MBC: Enterococcus faecalis, cut-off 99.9% reduction in CFU
Description: (§1) Further experiments were conducted using different strains of E. faecalis, as clinically relevant Gram-positive bacterial strains: E. faecalis vancomycin-resistant (VRE) ATCC BAA-2365, and E. faecalis ATCC 29212 in order to determine the Minimal Inhibitory Concentration (MIC) which is the minimal concentration required to prevent bacterial growth; the Minimal Bactericidal Concentration (MBC) which determines the lowest concentration at which an antimicrobial agent kill a particular microorganism and a Minimum Duration for killing 99.9% bacteria (MDK99.9) which is a tolerance metric according to the EUCAST.
(§2) MBC and MDK99.9 determination: A single colony selected from the different strains of E. faecalis is resuspended and cultured in the appropriate medium (TSB, or BHI) overnight (O/N) in aerobic conditions (37° C. with 220 rpm shaking), next day a 1:100 inoculum in the appropriate medium was incubated in aerobic conditions for 2 h. The culture is then challenged with triafluocyl at MIC concentration or higher concentrations. Bacterial growth was measured after different time intervals by counting the colony-forming units after plating appropriate culture dilutions on BHI agar plates. […] And the real time needed is defined as the MDK99.9. MBC for Triafluocyl against E. faecalis vancomycin-resistant (VRE) ATCC BAA-2365 was 20 μg/ml. MDK99.9 for Triafluocyl against E. faecalis vancomycin-resistant (VRE) ATCC BAA-2365 was 24 hours.
For MBC determination a 1:100 inoculum of an O/N culture (prepared like before) was incubated in aerobic conditions for 2 h in bacteria-specific medium. The culture was then challenged with Fluometacyl at the MIC concentration or higher. Bacterial growth was measured after different time intervals by counting the colony-forming units (CFU) after plating appropriate culture dilutions on bacteria-specific medium agar plates.

S. aureus ATCC 6538 = experiment: MBC and MDK99.9 determination (CFU counting); type: cell-based, Staphylococcus aureus
Description: as §1, with “S. aureus,” for “E. faecalis,”, “strains:” for “strains: E. faecalis vancomycin-resistant (VRE)”, “25904,” for “BAA-2365, and E. faecalis”, “6538, methilcillin-resistant S. aureus (MRSA) ATCC BAA-1556, Glycopeptide intermediate-resistant (GISA) S. aureus Mu-50 (ATCC 700695)” for “29212”
as §2, with “S. aureus” for “E. faecalis”, “MBC for Triafluocyl against E. faecalis vancomycin-resistant (VRE) ATCC BAA-2365 was 20 μg/ml. MDK99.9 for Triafluocyl against E. faecalis vancomycin-resistant (VRE) ATCC BAA-2365 was 24 hours.” left out

E. faecalis (ATCC 29212) = experiment: Growth kinetics in logarithmic phase (OD600 and viable count); type: cell-based, Enterococcus faecalis; conditions: 30-120 min, FIG. 3
Description: E. faecalis (ATCC 29212) was grown overnight in Brain heart infusion (BHI) medium, diluted 1:100 in fresh BHI, and incubated aerobically at 37° C. until bacteria growth reached a logarithmic phase (OD600=0.25-0.3).
Increasing concentrations of Triafluocyl (Cayman Chemical, Item No. 15425) or DMSO as vehicle was then added in 5 ml of bacteria suspensions. Bacterial growth was measured after different time intervals (30-120 min) by spectrophotometry (OD600) and by counting the colony-forming units after plating appropriate culture dilutions on BHI agar plates.
In FIG. 3 kinetics of E. faecalis growth in the presence of an increasing concentrations (5 μg/ml to 40 μg/ml) of Triafluocyl were measured by turbidity measurement (upper graph), and viable count (lower graph). Data represent medians±range (n=3).

[2] = system: E. faecalis (ATCC 29212) biofilm; experiment: Biofilm formation on polystyrene (crystal violet); type: cell-based, Enterococcus faecalis; conditions: 20 hours
Description: E. faecalis (ATCC 29212) was grown overnight in BHI medium, before being diluted 100 fold in fresh TSB, and incubated aerobically at 37° C. until bacteria culture reached an OD600 of 0.6 (corresponding to approximately 2-5×10^8 CFU/ml). Bacteria cultures were then diluted to 1×10^4 CFU/ml in fresh TSB. 800 μl aliquots of diluted bacteria suspensions were distributed in each well of a 24-well plate. Bacteria were allowed to adhere for 4 hours under static conditions at 37° C. After removing media, wells were rinsed 2 times with PBS to eliminate planktonic bacteria and re-filled with TSB supplemented with 0.5% glucose
Triafluocyl or DMSO as vehicle was then added at desired concentration and plates were incubated at 37° C. for 20 hours. After incubation, wells were washed and stained with 0.5% (w/v) crystal violet for 30 minutes, washed again and the dye was solubilized by adding 20% acetic acid (v/v in water) before reading absorbance at 595 nm.
E. faecalis biofilms were formed on polystyrene surface in the presence of increasing concentrations of Triafluocyl or DMSO as vehicle. In FIG. 2, Biofilm mass is presented as percentage of values obtained in the presence of DMSO (*P<0.05; **P<0.01; ***P<0.001, Triafluocyl versus DMSO, n=4).

Compound	MBC [1]	MDK 99.9 Time (h) needed to kill 99.9% of the started inoculum [1] [h]	MDK 99.9 Time (h) needed to kill 99.9% of the started inoculum (S. aureus ATCC 6538) [h]	MBC (S. aureus ATCC 6538; Staphylococcus aureus, ATCC6538, cut-off 99.9% reduction in CFU) [µg/mL]	effect on bacterial growth (turbidity and viable count) (E. faecalis (ATCC 29212); 10 μg/ml)	effect on bacterial growth (turbidity and viable count) (E. faecalis (ATCC 29212); 20 μg/ml)	effect on bacterial growth (turbidity and viable count) (E. faecalis (ATCC 29212); 40 μg/ml)	E. faecalis biofilm formation ([2]; 40 μg/ml, polystyrene surface)	E. faecalis biofilm formation ([2]; starting concentration of 10 μg/ml, versus DMSO)
CCCSc1nc(N[C@@H]2C[C@H]2c2ccc(F)c(F)c2)c2nnn([C@@H]3C[C@H](O)[C@@H](O)[C@H]3O)c2n1 [Fluometacyl, (1S,2R,3S,4R)-4-[7-[[(1R,2S)-2-(3,4-Difluorophenyl)cyclopropyl]amino]-5-(propylthio)-3H-1,2,3-triazolo[4,5-d]pyrimidin-3-yl]-1,2,3-cyclopentanetriol]	38 µM	–	–	–	–	–	–	–	–
CCCSc1nc(N[C@@H]2C[C@H]2c2ccc(F)c(F)c2)c2nnn([C@@H]3C[C@H](OCCO)[C@@H](O)[C@H]3O)c2n1 [Triafluocyl, (1S,2S,3R,5S)-3-[7-[(1R,2S)-2-(3,4-difluorophenyl)cyclopropylamino]-5-(propylthio)-3H-[1,2,3]-triazolo[4,5-d]pyrimidin-3-yl]-5-(2-hydroxyethoxy)-1,2-cyclopentanediol]	20 µg/mL	24	6	20 (≈ 38.3 µM)	able to inhibit bacterial growth	potent bactericidal effects	potent bactericidal effects	no biofilm could form	significantly reduces
